{"source": "BigSolDB 2.1"}
{"smiles": "Nc1ccc(S(=O)(=O)Nc2nccs2)cc1", "values": [{"measurement": "solubility (mole fraction)", "setting": "in n-octanol, 298.15 K", "result": "9.49e-05"}, {"measurement": "solubility (mole fraction)", "setting": "in n-octanol, 303.15 K", "result": 0.00013}, {"measurement": "solubility (mole fraction)", "setting": "in n-octanol, 308.15 K", "result": 0.000168}, {"measurement": "solubility (mole fraction)", "setting": "in n-octanol, 313.15 K", "result": 0.000206}, {"measurement": "solubility (mole fraction)", "setting": "in water, 298.15 K", "result": "3.25e-05"}, {"measurement": "solubility (mole fraction)", "setting": "in water, 303.15 K", "result": "4.33e-05"}, {"measurement": "solubility (mole fraction)", "setting": "in water, 308.15 K", "result": "5.92e-05"}, {"measurement": "solubility (mole fraction)", "setting": "in water, 313.15 K", "result": "7.35e-05"}]}
{"smiles": "Nc1ccc(S(=O)(=O)Nc2ncccn2)cc1", "values": [{"measurement": "solubility (mole fraction)", "setting": "in n-octanol, 298.15 K", "result": "1.39e-05"}, {"measurement": "solubility (mole fraction)", "setting": "in n-octanol, 303.15 K", "result": "1.79e-05"}, {"measurement": "solubility (mole fraction)", "setting": "in n-octanol, 308.15 K", "result": "2.32e-05"}, {"measurement": "solubility (mole fraction)", "setting": "in n-octanol, 313.15 K", "result": "3.09e-05"}, {"measurement": "solubility (mole fraction)", "setting": "in water, 298.15 K", "result": "4.87e-06"}, {"measurement": "solubility (mole fraction)", "setting": "in water, 303.15 K", "result": "5.98e-06"}, {"measurement": "solubility (mole fraction)", "setting": "in water, 308.15 K", "result": "7.94e-06"}, {"measurement": "solubility (mole fraction)", "setting": "in water, 313.15 K", "result": "1.09e-05"}]}
